Where two headings read alike, the source gives them in different places.

Experiment [1] concerns phospho-SLP-76 (Ser376) in Jurkat cells. Put plainly: Phospho-SLP-76 (Ser376) Homogeneous Time Resolved Fluorescence (HTRF) assay in Jurkat cells. It is filed as cell-based. The settings on record: Homo sapiens, read-out: SLP76 Assay_IC50. The procedure: Jurkat cells were seeded at 90,000 cells/well in 90 uL of RPMI1640 growth medium containing 10% FBS and incubated at 37° C. with 5% CO2 overnight. The following day, compounds were serially diluted from a 10 mM top dose for an 11-point 3 fold dilution curve in DMSO. Compounds were intermediately diluted 1:100 into growth media prior to diluting 1:10 on cells for final concentration 10 μM to 0.1 nM in 0.1% DMSO. After 30 minutes pre-treatment with compounds, the cells were stimulated using 200 μg/mL of F(ab)2 complexed anti-CD3 (clone UCTH1) for 15 min at 37° C. with 5% CO2. Stimulation was stopped with ice cold PBS and cells were harvested by centrifugation before lysis in Cisbio lysis buffer (Cisbio, Bedford, Mass.). Lysates were transferred to white, low-volume plates containing anti-phospho-SLP-76-Cryptate plus anti-phospho-SLP-76-d2 HTRF antibodies and incubated overnight at room temperature protected from light according to the manufacturer's protocol (Cisbio, Bedford, Mass.). HTRF was measured on a Perkin Elmer Envision and IC50 values were calculated by concentration-response curve fitting utilizing four-parameter nonlinear regression analyses.

Experiment [2] addresses human full-length recombinant HPK1 (Homo sapiens (Human), UniProt Q92918). The experiment is described as follows: HPK1 biochemical enzyme assay, microfluidic mobility shift assay (MSA). The following applies: read-out: HPK1 Enzyme Assay_Ki. The procedure: HPK1 enzyme inhibition was measured using a microfluidic mobility shift assay (MSA). […] The reactions were conducted for 60 min at 37° C., stopped by the addition of 50 μL of 0.015 M EDTA, pH 8, and the extent of reactions (˜15-20% conversion with no inhibitor) was determined after electrophoretic separation of the fluorescently labeled peptide substrate and phosphorylated product on an LabChip EZ Reader II (PerkinElmer, Inc., Waltham, Mass.). […]

[3] abbreviates: 30 min pre-treatment, anti-CD3 stimulation 15 min, HTRF.
Setting [4] is: mobility shift assay, 75 μM ATP, Morrison equation, tight-binding competitive inhibition.
The mark [5] stands for this setting: Phospho-SLP-76 (Ser376) HTRF, anti-CD3 stimulation.

Sequence of human full-length recombinant HPK1 (Q92918 whole entry): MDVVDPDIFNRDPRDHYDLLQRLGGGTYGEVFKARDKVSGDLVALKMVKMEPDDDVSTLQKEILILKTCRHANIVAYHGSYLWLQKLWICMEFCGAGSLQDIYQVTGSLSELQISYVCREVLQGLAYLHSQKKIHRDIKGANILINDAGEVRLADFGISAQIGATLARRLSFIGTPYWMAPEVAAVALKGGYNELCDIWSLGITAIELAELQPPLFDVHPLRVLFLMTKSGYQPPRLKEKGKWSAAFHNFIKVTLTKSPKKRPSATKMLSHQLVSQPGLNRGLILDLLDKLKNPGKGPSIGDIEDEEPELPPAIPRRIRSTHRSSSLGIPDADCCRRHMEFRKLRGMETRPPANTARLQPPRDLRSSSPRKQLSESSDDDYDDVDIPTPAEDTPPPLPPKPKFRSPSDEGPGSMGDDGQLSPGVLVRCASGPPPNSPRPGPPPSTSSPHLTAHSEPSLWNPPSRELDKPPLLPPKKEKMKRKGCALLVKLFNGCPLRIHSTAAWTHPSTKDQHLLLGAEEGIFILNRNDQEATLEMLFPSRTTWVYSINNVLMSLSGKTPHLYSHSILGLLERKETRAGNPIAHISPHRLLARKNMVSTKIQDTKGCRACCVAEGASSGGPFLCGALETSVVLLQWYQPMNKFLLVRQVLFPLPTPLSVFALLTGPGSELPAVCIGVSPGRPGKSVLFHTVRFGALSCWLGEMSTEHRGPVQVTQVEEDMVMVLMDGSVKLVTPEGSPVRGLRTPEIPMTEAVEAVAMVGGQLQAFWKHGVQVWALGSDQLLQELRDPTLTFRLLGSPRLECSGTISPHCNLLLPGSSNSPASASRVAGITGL

With `CC[C@@H](CC(F)(F)F)n1cnnc1-c1cccc(N2Cc3c(cc(N(C)C)nc3CNC)C2=O)n1` (single isomer, unassigned) [Example 18, 6-(dimethylamino)-4-[(methylamino)methyl]-2-(6-{4-[(3ξ)-1,1,1-trifluoropentan-3-yl]-4H-1,2,4-triazol-3-yl}pyridin-2-yl)-2,3-dihydro-1H-pyrrolo[3,4-c]pyridin-1-one], the IC50 in experiment [1] (setting [3]) came to 101 nM. Also, in experiment [2] (setting [4]), the Ki was less than 0.05 nM. With `CC[C@H](CC(F)(F)F)n1cnnc1-c1cccc(N2Cc3c(cc(N(C)C)nc3CNC)C2=O)n1` (single isomer, unassigned) [Example 19, 6-(dimethylamino)-4-[(methylamino)methyl]-2-(6-{4-[(3ξ)-1,1,1-trifluoropentan-3-yl]-4H-1,2,4-triazol-3-yl}pyridin-2-yl)-2,3-dihydro-1H-pyrrolo[3,4-c]pyridin-1-one], the IC50 in experiment [1] (setting [3]) was more than 10000 nM. For the same compound, in experiment [2] (setting [4]), the Ki came to 6.9 nM. The like results for `CC[C@H](CC(F)(F)F)n1cnnc1-c1cccc(N2Cc3c(cc(C(C)(C)C)nc3CNC)C2=O)n1` (single isomer, unassigned) [Example 51, 6-tert-butyl-4-[(methylamino)methyl]-2-(6-{4-[(3ξ)-1,1,1-trifluoropentan-3-yl]-4H-1,2,4-triazol-3-yl}pyridin-2-yl)-2,3-dihydro-1H-pyrrolo[3,4-c]pyridin-1-one] were, in that order, 1520 nM and 7.1 nM. As to `CC[C@@H](CC(F)(F)F)n1cnnc1-c1cccc(N2Cc3c(cc(N(C)C(C)C)nc3CNC)C2=O)n1` (single isomer, unassigned) [Example 72, 4-[(methylamino)methyl]-6-[methyl(propan-2-yl)amino]-2-(6-{4-[(3ξ)-1,1,1-trifluoropentan-3-yl]-4H-1,2,4-triazol-3-yl}pyridin-2-yl)-2,3-dihydro-1H-pyrrolo[3,4-c]pyridin-1-one], the IC50 in experiment [1] (setting [5]) came to 1020 nM. Also, the Ki in experiment [2] (HPK1 mobility shift assay) was determined as 4.48 nM. The like results for `CC[C@H](CC(F)(F)F)n1cnnc1-c1cccc(N2Cc3c(cc(N(C)C(C)C)nc3CNC)C2=O)n1` (single isomer, unassigned) [Example 73, 4-[(methylamino)methyl]-6-[methyl(propan-2-yl)amino]-2-(6-{4-[(3ξ)-1,1,1-trifluoropentan-3-yl]-4H-1,2,4-triazol-3-yl}pyridin-2-yl)-2,3-dihydro-1H-pyrrolo[3,4-c]pyridin-1-one] were, in that order, 61 nM and 0.22 nM. `CNCc1nc(N(C)C)cc2c1CN(c1cccc(-c3nncn3C(C)C)n1)C2=O` [Example 1, 6-(dimethylamino)-4-[(methylamino)methyl]-2-{6-[4-(propan-2-yl)-4H-1,2,4-triazol-3-yl]pyridin-2-yl}-2,3-dihydro-1H-pyrrolo[3,4-c]pyridin-1-one]: the IC50 in experiment [1] (setting [3]) came out at 112 nM. Further, the Ki in experiment [2] (setting [4]) came to 0.15 nM. Taken in the same sequence, the figures for `CNCc1nc(N2CCC2)cc2c1CN(c1cccc(-c3nncn3C(C)C)n1)C2=O` [Example 2, 6-(azetidin-1-yl)-4-[(methylamino)methyl]-2-{6-[4-(propan-2-yl)-4H-1,2,4-triazol-3-yl]pyridin-2-yl}-2,3-dihydro-1H-pyrrolo[3,4-c]pyridin-1-one] were 86 nM and 0.28 nM.

For the compound `CCN(CC)c1cc2c(c(CNC)n1)CN(c1cccc(-c3nncn3C(C)C)n1)C2=O` [Example 4, 6-(diethylamino)-4-[(methylamino)methyl]-2-{6-[4-(propan-2-yl)-4H-1,2,4-triazol-3-yl]pyridin-2-yl}-2,3-dihydro-1H-pyrrolo[3,4-c]pyridin-1-one], the IC50 in experiment [1] (setting [3]) turned out to be 106 nM. The Ki in experiment [2] (setting [4]) amounted to 0.39 nM. The like results for `CNCc1nc(C2CC2)cc2c1CN(c1cccc(-c3nncn3C(C)C)n1)C2=O` [Example 5, 6-cyclopropyl-4-[(methylamino)methyl]-2-{6-[4-(propan-2-yl)-4H-1,2,4-triazol-3-yl]pyridin-2-yl}-2,3-dihydro-1H-pyrrolo[3,4-c]pyridin-1-one] were, in that order, 186 nM and 0.39 nM. The like results for `CNCc1nc(N(C)C(C)C)cc2c1CN(c1cccc(-c3nncn3C(C)C)n1)C2=O` [Example 6, 4-[(methylamino)methyl]-6-[methyl(propan-2-yl)amino]-2-{6-[4-(propan-2-yl)-4H-1,2,4-triazol-3-yl]pyridin-2-yl}-2,3-dihydro-1H-pyrrolo[3,4-c]pyridin-1-one] were, in that order, 39 nM and 0.13 nM. As for `CNCc1nc(N2CCCC2)cc2c1CN(c1cccc(-c3nncn3[C@@H](C)CC(F)(F)F)n1)C2=O` [Example 15, 4-[(methylamino)methyl]-6-(pyrrolidin-1-yl)-2-(6-{4-[(2S)-4,4,4-trifluorobutan-2-yl]-4H-1,2,4-triazol-3-yl}pyridin-2-yl)-2,3-dihydro-1H-pyrrolo[3,4-c]pyridin-1-one], the IC50 in experiment [1] (setting [3]) was determined as 134 nM. Still for that read-out and setting: next, `CNCc1nc(NC)cc2c1CN(c1cccc(-c3nncn3C(C)C)n1)C2=O` [Example 24]: 488 nM; `CCCn1c(C)nnc1-c1cccc(N2Cc3c(cc(N4CCC[C@H]4C)nc3CNC)C2=O)n1` [Example 62, 4-[(methylamino)methyl]-2-[6-(5-methyl-4-propyl-4H-1,2,4-triazol-3-yl)pyridin-2-yl]-6-[(2R)-2-methylpyrrolidin-1-yl]-2,3-dihydro-1H-pyrrolo[3,4-c]pyridin-1-one]: 42 nM. On to `CCc1nnc(-c2cccc(N3Cc4c(cc(N(C)C(C)C)nc4CNC)C3=O)n2)n1CC` [Example 67, 2-[6-(4,5-diethyl-4H-1,2,4-triazol-3-yl)pyridin-2-yl]-4-[(methylamino)methyl]-6-[methyl(propan-2-yl)amino]-2,3-dihydro-1H-pyrrolo[3,4-c]pyridin-1-one], for which, in experiment [2] (setting [4]), the Ki is 1.29 nM.

Consider `CCNc1cc2c(c(CNC)n1)CN(c1cccc(-c3nncn3C(C)C)n1)C2=O` [Example 77, 6-(ethylamino)-4-[(methylamino)methyl]-2-{6-[4-(propan-2-yl)-4H-1,2,4-triazol-3-yl]pyridin-2-yl}-2,3-dihydro-1H-pyrrolo[3,4-c]pyridin-1-one], for which the Ki in experiment [2] (HPK1 mobility shift assay) is 0.68 nM. The same measure, in the same setting: the same measure for `CCCn1cnnc1-c1cccc(N2Cc3c(cc(N(CC)C(C)C)nc3CNC)C2=O)n1` [Example 99, 6-[ethyl(propan-2-yl)amino]-4-[(methylamino)methyl]-2-[6-(4-propyl-4H-1,2,4-triazol-3-yl)pyridin-2-yl]-2,3-dihydro-1H-pyrrolo[3,4-c]pyridin-1-one]: 0.83 nM. With `CCn1c(C)nnc1-c1cccc(N2Cc3c(cc(N4CCC[C@H]4C)nc3CNC)C2=O)n1` [Example 121, 2-[6-(4-ethyl-5-methyl-4H-1,2,4-triazol-3-yl)pyridin-2-yl]-4-[(methylamino)methyl]-6-[(2R)-2-methylpyrrolidin-1-yl]-2,3-dihydro-1H-pyrrolo[3,4-c]pyridin-1-one], in experiment [1] (setting [5]), the IC50 turned out to be 62 nM. Take `CCCn1c(C)nnc1-c1cccc(N2Cc3c(cc(N4CCC[C@H]4C)nc3CN)C2=O)n1` [Example 133, 4-(aminomethyl)-2-[6-(5-methyl-4-propyl-4H-1,2,4-triazol-3-yl)pyridin-2-yl]-6-[(2R)-2-methylpyrrolidin-1-yl]-2,3-dihydro-1H-pyrrolo[3,4-c]pyridin-1-one]: in experiment [1] (setting [5]), the IC50 turned out to be 232 nM. On the same count and under the same terms, next, `CCCn1c(C)nnc1-c1cccc(N2Cc3c(cc(N4CCC[C@@H]4C)nc3CNC)C2=O)n1` [Example 134, 4-[(methylamino)methyl]-2-[6-(5-methyl-4-propyl-4H-1,2,4-triazol-3-yl)pyridin-2-yl]-6-[(2S)-2-methylpyrrolidin-1-yl]-2,3-dihydro-1H-pyrrolo[3,4-c]pyridin-1-one]: 53 nM; `CCCn1c(C)nnc1-c1cccc(N2Cc3c(cc(N4CCC[C@@H]4C)nc3CN)C2=O)n1` [Example 159]: 112 nM. Still for that read-out and setting: next, `Cc1nnc(-c2cccc(N3Cc4c(cc(N5CCCC5(C)C)nc4CN)C3=O)n2)n1C(C)C` [Example 164]: 65 nM.

As for `CNCc1nc(N(C)C)cc2c1CN(c1cccc(-c3nncn3[C@@H](C)C(C)C)n1)C2=O` [Example 178], the Ki in experiment [2] (HPK1 mobility shift assay) is 0.17 nM. The same measure, in the same setting: the same measure for `CNCc1nc(C2(C)CC2)cc2c1CN(c1cccc(-c3nncn3C3CCCC3)n1)C2=O` [Example 179]: 0.47 nM; for `CNCc1nc(N(C)C)cc2c1CN(c1cccc(-c3nncn3[C@H](C)C(C)C)n1)C2=O` [Example 182]: 0.37 nM; for `CCCn1c(CC)nnc1-c1cccc(N2Cc3c(cc(N4CCC[C@H]4C)nc3CN)C2=O)n1` [Example 186]: 1.91 nM. Still for that read-out and setting: next, `CNCc1nc(C2(C)CC2)cc2c1CN(c1cccc(-c3nnc(C)n3C3CCC3)n1)C2=O` [Example 187]: 26 nM; `Cc1nnc(-c2cccc(N3Cc4c(cc(C5(C)CC5)nc4CN)C3=O)n2)n1C1CCC1` [Example 188]: 41 nM.

The record behind these values is patent US11142525B2 (Pfizer Inc., priority 2018, dated 2021).
